The values that follow come from patent US20230257398A1, “PYRIMIDINE-BASED TRICYCLIC COMPOUND AND USE THEREOF” (Chia Tai Tianqing Pharmaceutical Group Co., Ltd., priority 2020, published 2023).

Each structure is given as a SMILES string.

In the experiment the target is T1, sGC (Homo sapiens, UniProt Q02108+Q02153).
T1 construct: Preparation of LNCap Cells; endogenous in cells; host or cells: LNCaP cells (14th generation), no transfection described
T1 sequence (Q02153 1-619): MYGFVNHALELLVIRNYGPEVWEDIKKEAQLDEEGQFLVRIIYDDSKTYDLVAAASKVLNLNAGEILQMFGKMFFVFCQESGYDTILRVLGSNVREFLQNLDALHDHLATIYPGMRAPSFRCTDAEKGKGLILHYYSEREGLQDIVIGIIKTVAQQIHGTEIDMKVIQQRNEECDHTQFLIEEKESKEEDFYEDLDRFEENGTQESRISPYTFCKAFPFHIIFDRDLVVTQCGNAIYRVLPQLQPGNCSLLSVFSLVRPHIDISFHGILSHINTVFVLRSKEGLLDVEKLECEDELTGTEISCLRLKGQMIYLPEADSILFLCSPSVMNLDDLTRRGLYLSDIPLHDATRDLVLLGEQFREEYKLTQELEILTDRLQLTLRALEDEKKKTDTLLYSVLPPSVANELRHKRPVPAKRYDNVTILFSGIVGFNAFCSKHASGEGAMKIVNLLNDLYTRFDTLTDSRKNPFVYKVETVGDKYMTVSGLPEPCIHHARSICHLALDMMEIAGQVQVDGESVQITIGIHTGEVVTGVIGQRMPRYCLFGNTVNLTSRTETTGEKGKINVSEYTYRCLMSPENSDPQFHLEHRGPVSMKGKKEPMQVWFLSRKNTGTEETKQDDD
T1 sequence (Q02108 1-690): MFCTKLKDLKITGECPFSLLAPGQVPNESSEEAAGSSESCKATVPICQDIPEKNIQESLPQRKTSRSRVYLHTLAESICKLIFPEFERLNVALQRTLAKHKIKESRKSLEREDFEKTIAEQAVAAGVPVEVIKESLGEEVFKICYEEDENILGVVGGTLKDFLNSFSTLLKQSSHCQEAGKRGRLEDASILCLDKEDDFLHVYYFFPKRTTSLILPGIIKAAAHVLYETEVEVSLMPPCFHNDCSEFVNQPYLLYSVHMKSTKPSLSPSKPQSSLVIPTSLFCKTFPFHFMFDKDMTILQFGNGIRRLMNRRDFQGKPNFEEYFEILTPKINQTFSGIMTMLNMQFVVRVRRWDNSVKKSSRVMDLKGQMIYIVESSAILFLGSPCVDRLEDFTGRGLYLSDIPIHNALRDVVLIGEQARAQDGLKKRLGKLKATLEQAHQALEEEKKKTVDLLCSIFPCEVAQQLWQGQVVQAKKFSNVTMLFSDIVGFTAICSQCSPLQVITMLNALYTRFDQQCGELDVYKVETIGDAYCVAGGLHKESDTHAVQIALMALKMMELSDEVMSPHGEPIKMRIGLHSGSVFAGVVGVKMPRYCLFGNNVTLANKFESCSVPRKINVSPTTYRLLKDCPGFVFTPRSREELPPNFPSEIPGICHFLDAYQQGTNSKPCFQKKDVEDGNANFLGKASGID
Kind of experiment: lnCap cell-based cGMP expression assay (stimulating activity for sGC). The following applies: with DETA-NO, 37° C. 30 min, HTRF cGMP. As for the experimental part: I. lnCap Cell-Based cGMP Expression Assay
1) Preparation of Solutions
10% BSA (Bovine Serum Albumin)
10 g of BSA was dissolved in 100 mL of double distilled water (ddH2O) to give 10% BSA.
5 mM DETA (Diethylenetriamine)-NO
10 mg of DETA-NO was weighed out and dissolved in 12.2 mL of double distilled water (ddH2O) to give 5 mM DETA-NO, which was aliquoted and cryopreserved in a freezer at −20° C.
a) To 1 mL of a lysis buffer was added 50 μL of cGMP-D2 (D2-labeled cyclic guanosine monophosphate), and the mixture was well mixed.
b) To 1 mL of a lysis buffer was added 50 μL of anti-cGMP cryptate (Eu^3+ cryptate-labeled anti-cyclic guanosine monophosphate antibody), and the mixture was well mixed.
(1) The compounds were diluted to 5 mM with DMSO. 10 μL of each of the compounds was transferred to a shallow well plate for Echo.
(2) The compounds were gradiently diluted with Echo. Each of the compounds was diluted to obtain 10 concentration gradients, and 50 nL of each of the concentration gradients was added to a 384 microwell plate.
3) Preparation of LNCap Cells
(1) LNCap medium: RPMI1640+10% fetal bovine serum+1% […].
(2) Phosphate buffered saline, pancreatin and the medium used in the process of cell passaging were pre-heated in a water bath at 37° C.
(3) The cells (the 14th generation) were taken out of the 37° C., 5% CO2 incubator, and the old medium was pipetted off the culture flask.
(4) 5 mL of phosphate buffered saline was pipetted into the culture flask to rinse the cells, and then the liquid was discarded.
(5) 3 mL of pancreatin was pipetted into the culture flask. After the culture flask was shaken, the liquid was discarded, and the culture flask was placed in the incubator.
(6) After about 2 min the culture flask was taken out. […] The cell suspension was transferred to a 50 mL centrifuge tube.
(7) 0.7 mL of the cell suspension was pipetted into a counter cup and the cells were counted on a ViCell XR. The remaining cells were centrifuged at 1000 rpm for 5 min, and the supernatant was removed.
(8) The cells were washed by adding 10 mL of the washing buffer and centrifuged at 1000 rpm for 5 min, and the supernatant was removed.
(9) The assay buffer was added to adjust the cell concentration to 1.25×10^6/mL. The cells were added to the microwell plate at 8 μL/well.
4) Formulation and Addition of DETA-NO
(1) 10 μL of 5 mM DETA-NO was added to 1240 μL of the assay buffer and to 1657 μL of the assay buffer to give 40 μM DETA-NO and 30 μM DETA-NO, respectively.
(2) DETA-NO was transferred to the 384 microwell plate at 2 μL/well using Bravo.
(3) The mixtures were centrifuged at 1500 rpm for 5 min. The microwell plate was incubated at 37° C. for 30 min.
5) Preparation of cGMP Standard Curve
(1) 1 mM of the cGMP stock solution was diluted to 10 μM with the assay buffer. Then 4-fold gradient dilution was performed to obtain 11 concentration gradients.
(2) The cGMP dilutions were added to the microwell plate at 10 μL/well.
6) Addition of Detection Reagents and Plate Reading
(1) cGMP-D2 was transferred to the 384 microwell plate at 5 μL/well using Bravo. The mixtures were centrifuged at 1500 rpm for 1 min.
(2) The anti-cGMP cryptate was transferred to the 384 microwell plate at 5 μL/well using Bravo. The mixtures were centrifuged at 1500 rpm for 1 min.
(3) The plate was incubated at room temperature for 1 h.
(4) 665/615 was read using envision.
(1) cGMP standard curve: a standard curve was generated using Graphpad prism based on the cGMP concentrations and 665/615 ratios.
(2) Conversion of HTRF (homogeneous time-resolved fluorescence) ratios (665/615) to cGMP concentrations: in Graphpad prism, the HTRF ratios (665/615) were copied into the ratio column of the cGMP standard curve, and the “Log inhibitor vs response-variable slope” analysis was run with “interpolate” selected to convert the HTRF ratios (665/615) to cGMP concentrations. […]
For orientation: TR-FRET usually uses a lanthanide donor and a delayed reading to cut background.
`CC12CC(=O)Nc3nc(-c4nn(Cc5ccccc5F)c5ncc(F)cc45)nc(c31)NC2=O` (centres unmarked) [Compound 001]: the “MEC: minimum effective concentration to stimulate cGMP production (three times greater than the basal value) in lnCap cells” value (from here on “MEC: minimum effective concentration”) turned out to be 6.38 nM.

As for `O=c1[nH]c2nc(-c3nn(Cc4ccccc4F)c4ncc(F)cc34)nc3c2n1CCN3` [Compound 002], the “MEC: minimum effective concentration” value came out at 81.22 nM.

For the compound `CC12CCNc3nc(-c4nn(Cc5ccccc5F)c5ncc(F)cc45)nc(c31)NC2=O` (centres unmarked) [Compound 003], the “MEC: minimum effective concentration” value was 7.97 nM.

Take `O=C1Cn2c(=O)[nH]c3nc(-c4nn(Cc5ccccc5F)c5ncc(F)cc45)nc(c32)N1` [Compound 004]: the “MEC: minimum effective concentration” value is recorded as 142.79 nM.

Take `CC12CC(=O)Nc3nc(-c4nn(Cc5ccccc5F)c5ncc(F)cc45)nc(c31)NC(=O)C2` [Compound 007]: the “MEC: minimum effective concentration” value is 55.54 nM.

Consider `CC12CCC(=O)Nc3nc(-c4nn(Cc5ccccc5F)c5ncc(F)cc45)nc(c31)NC(=O)C2` (centres unmarked) [Compound 008], for which the “MEC: minimum effective concentration” value was determined as 88.37 nM.

In the case of `CC12CCNc3nc(-c4nn(CCC(F)(F)C(F)(F)F)c5ncc(F)cc45)nc(c31)NC2=O` (centres unmarked) [Compound 009], the “MEC: minimum effective concentration” value came to 5.8 nM.

As to `CC12CC(=O)Nc3nc(-c4nn(Cc5c(F)cccc5F)c5ncc(F)cc45)nc(c31)NC(=O)C2` [Compound 010], the “MEC: minimum effective concentration” value is recorded as 51.76 nM.

As for `CC12CCC(=O)Nc3nc(-c4nn(Cc5c(F)cccc5F)c5ncc(F)cc45)nc(c31)NC(=O)C2` (centres unmarked) [Compound 011], the “MEC: minimum effective concentration” value worked out at 178.6 nM.

With `CC12CC(=O)Nc3nc(-c4nn(CCC(F)(F)C(F)(F)F)c5ncc(F)cc45)nc(c31)NC(=O)C2` [Compound 012], the “MEC: minimum effective concentration” value was 118.6 nM.

Consider `CC12CCC(=O)Nc3nc(-c4nn(Cc5c(F)cccc5F)c5ncc(F)cc45)nc(c31)NC2=O` (centres unmarked) [Compound 013], for which the “MEC: minimum effective concentration” value is 3.12 nM.

Turning to `CC12CCC(=O)Nc3nc(-c4nn(CCC(F)(F)C(F)(F)F)c5ncc(F)cc45)nc(c31)NC(=O)C2` (centres unmarked) [Compound 014], the “MEC: minimum effective concentration” value is given as 402.7 nM.

On to `CC12CCNc3nc(-c4nn(Cc5c(F)cccc5F)c5ncc(F)cc45)nc(c31)NC2=O` (centres unmarked) [Compound 015], for which the “MEC: minimum effective concentration” value turned out to be 4.66 nM.

For the compound `CC12CC(=O)Nc3nc(-c4nn(CCC(F)(F)C(F)(F)F)c5ncc(F)cc45)nc(c31)NC2=O` (centres unmarked) [Compound 016], the “MEC: minimum effective concentration” value is recorded as 17.51 nM.

For the compound `CC12CC(=O)Nc3nc(-c4nn(Cc5c(F)cccc5F)c5ncc(F)cc45)nc(c31)NC2=O` (centres unmarked) [Compound 017], the “MEC: minimum effective concentration” value is reported as 3.46 nM.

Regarding `CC12CCC(=O)Nc3nc(-c4nn(CCC(F)(F)C(F)(F)F)c5ncc(F)cc45)nc(c31)NC2=O` (centres unmarked) [Compound 018], the “MEC: minimum effective concentration” value is 13.12 nM.

Regarding `CC12CCC(=O)Nc3nc(-c4nn(Cc5ccccc5F)c5ncc(F)cc45)nc(c31)NC2=O` (centres unmarked) [Compound 019], the “MEC: minimum effective concentration” value was found to be 2.4 nM.

Regarding `CC12CCNc3nc(-c4nn(Cc5c(F)cccc5F)c5ncc(F)cc45)nc(c31)NC(=O)C2` (centres unmarked) [Compound 022], the “MEC: minimum effective concentration” value is on record as 24.9 nM.

As for `CC12CCNc3nc(-c4nn(CCC(F)(F)C(F)(F)F)c5ncc(F)cc45)nc(c31)NC(=O)C2` (centres unmarked) [Compound 023], the “MEC: minimum effective concentration” value was 26.12 nM.

As for `CC12CC(=O)Nc3nc(-c4nn(Cc5ccccc5F)c5ncc(F)cc45)nc(c31)NC2=O` (centres unmarked) [Compound 024], the “MEC: minimum effective concentration” value stood at 7.59 nM.

Regarding `CC12CNC(=O)c3nc(-c4nn(Cc5ccccc5F)c5ncc(F)cc45)nc(c31)NC2=O` (centres unmarked) [Compound 028], the “MEC: minimum effective concentration” value turned out to be 21.26 nM.

In the case of `CN1C(=O)CC2(C)C(=O)Nc3nc(-c4nn(Cc5ccccc5F)c5ncc(F)cc45)nc1c32` (centres unmarked) [Compound 029], the “MEC: minimum effective concentration” value is given as 37.34 nM.

For `CN1C(=O)C2(C)CC(=O)Nc3nc(-c4nn(Cc5ccccc5F)c5ncc(F)cc45)nc1c32` (centres unmarked) [Compound 030], the “MEC: minimum effective concentration” value worked out at 84.34 nM.

Take `CC1(C)C(=O)Nc2nc(-c3nn(Cc4ccccc4F)c4ncc(F)cc34)nc3c2C1C(=O)N3` (centres unmarked) [Compound 031]: the “MEC: minimum effective concentration” value is 19.78 nM.

Take `CC12C(=O)Nc3nc(-c4nn(Cc5ccccc5F)c5ncc(F)cc45)nc(c31)NC(=O)C2(F)F` (centres unmarked) [Compound 034]: the “MEC: minimum effective concentration” value came to 31.53 nM.

Regarding `CC12OCCNc3nc(-c4nn(Cc5ccccc5F)c5ncc(F)cc45)nc(c31)NC2=O` (centres unmarked) [Compound 039], the “MEC: minimum effective concentration” value amounted to 28.15 nM.
